Laboratory results reported in ChEMBL document CHEMBL6134931, “Lysine-Targeted Covalent Strategy Leading to the Discovery of Novel Potent PROTAC-Based PI3Kδ Degraders” (J Med Chem, 2025).
The source made the active and inactive calls. The calls are words filed in the database; no cut-off is given here.

How the values were obtained:
SU-DHL-6 [1] = assay: Antiproliferative activity against human SU-DHL-6 cells assessed as cell growth inhibition incubated for 72 hrs by MTT assay; format: functional
SU-DHL-6 [2] = assay: Inhibition of AKT phosphorylation in human SU-DHL-6 cells at 0.1 to 1 uM incubated for 24 hrs by Western blot analysis; format: cell-based; settings: dose 0.1-1 µM
Pfeiffer = assay: Antiproliferative activity against human Pfeiffer cells assessed as cell growth inhibition incubated for 72 hrs by MTT assay; format: functional
[3] = Stability of compound in PBS at pH 7.4 assessed as parent compound remaining measured after 48 hrs by HPLC analysis; format: physicochemical; settings: read-out: Stability
SU-DHL-6 [4] = assay: Inhibition of AKT phosphorylation in human SU-DHL-6 cells at 1 to 10000 nM incubated for 24 hrs by Western blot analysis; format: cell-based; settings: dose 1-10000 nM
SU-DHL-6 [5] = assay: Induction of autophagy in human SU-DHL-6 cells assessed as increase in LC3-II to LC3-I ratio at 1 to 100 nM incubated for 24 hrs by Western blot analysis; format: functional, cell-based; settings: dose 1-100 nM
[6] = biological target: Phosphatidylinositol 4,5-bisphosphate 3-kinase catalytic subunit alpha isoform (Homo sapiens, UniProt P42336); assay: Inhibition of PI3Kalpha (unknown origin) preincubated for 30 mins followed by ATP addition and measured after 1 hrs by ADP-Glo reagent based analysis
[7] = biological target: Phosphatidylinositol 4,5-bisphosphate 3-kinase catalytic subunit beta isoform (Homo sapiens, UniProt P42338); assay: Inhibition of PI3Kbeta (unknown origin) preincubated for 30 mins followed by ATP addition and measured after 1 hrs by ADP-Glo reagent based analysis
[8] = biological target: von Hippel-Lindau disease tumor suppressor/Phosphatidylinositol 4,5-bisphosphate 3-kinase catalytic subunit alpha isoform (Homo sapiens, UniProt P42336+P40337); assay: PROTAC activity at VHL/p110alpha in human SU-DHL-6 cells assessed as induction of p110alpha degradation incubated for 24 hrs by Western blot analysis; format: cell-based
[9] = biological target: von Hippel-Lindau disease tumor suppressor/Phosphatidylinositol 4,5-bisphosphate 3-kinase catalytic subunit beta isoform (Homo sapiens, UniProt P42338+P40337); assay: PROTAC activity at VHL/p110beta in human SU-DHL-6 cells assessed as induction of p110beta degradation incubated for 24 hrs by Western blot analysis; format: cell-based
SU-DHL-6 [10] = assay: Cell cycle arrest in human SU-DHL-6 cells assessed as increase in G1 phase cells incubated for 24 hrs by PI staining based flow cytometric analysis; format: functional; settings: dose 0.01-1 µM
SU-DHL-6 [11] = assay: Cell cycle arrest in human SU-DHL-6 cells assessed as increase in G1 phase cells at 0.1 uM incubated for 24 hrs by PI staining based flow cytometric analysis; format: functional
SU-DHL-6 [12] = assay: Induction of apoptosis in human SU-DHL-6 cells assessed as viable cells at 1 uM incubated for 24 hrs by Annexin V-FITC/PI staining based flow cytometric analysis (reference value: 92.54 %); format: functional; settings: read-out: Activity
SU-DHL-6 [13] = assay: Induction of apoptosis in human SU-DHL-6 cells assessed as early apoptotic cells at 1 uM incubated for 24 hrs by Annexin V-FITC/PI staining based flow cytometric analysis (reference value: 2.32 %); format: functional
SU-DHL-6 [14] = assay: Induction of apoptosis in human SU-DHL-6 cells assessed as late apoptotic cells at 1 uM incubated for 24 hrs by Annexin V-FITC/PI staining based flow cytometric analysis (reference value: 4.75 %); format: functional
SU-DHL-6 [15] = assay: Induction of apoptosis in human SU-DHL-6 cells assessed as necrotic cells at 1 uM incubated for 24 hrs by Annexin V-FITC/PI staining based flow cytometric analysis (reference value: 0.39 %); format: functional
SU-DHL-6 [16] = assay: Induction of apoptosis in human SU-DHL-6 cells assessed as viable cells at 0.01 uM incubated for 24 hrs by Annexin V-FITC/PI staining based flow cytometric analysis (reference value: 92.54 %); format: functional; settings: read-out: Activity
SU-DHL-6 [17] = assay: Induction of apoptosis in human SU-DHL-6 cells assessed as early apoptotic cells at 0.01 uM incubated for 24 hrs by Annexin V-FITC/PI staining based flow cytometric analysis (reference value: 2.32 %); format: functional
SU-DHL-6 [18] = assay: Induction of apoptosis in human SU-DHL-6 cells assessed as late apoptotic cells at 0.01 uM incubated for 24 hrs by Annexin V-FITC/PI staining based flow cytometric analysis (reference value: 4.75 %); format: functional
SU-DHL-6 [19] = assay: Induction of apoptosis in human SU-DHL-6 cells assessed as necrotic cells at 0.01 uM incubated for 24 hrs by Annexin V-FITC/PI staining based flow cytometric analysis (reference value: 0.39 %); format: functional
SU-DHL-6 [20] = assay: Induction of apoptosis in human SU-DHL-6 cells assessed as viable cells at 0.1 uM incubated for 24 hrs by Annexin V-FITC/PI staining based flow cytometric analysis (reference value: 92.54 %); format: functional; settings: read-out: Activity
SU-DHL-6 [21] = assay: Induction of apoptosis in human SU-DHL-6 cells assessed as early apoptotic cells at 0.1 uM incubated for 24 hrs by Annexin V-FITC/PI staining based flow cytometric analysis (reference value: 2.32 %); format: functional
SU-DHL-6 [22] = assay: Induction of apoptosis in human SU-DHL-6 cells assessed as late apoptotic cells at 0.1 uM incubated for 24 hrs by Annexin V-FITC/PI staining based flow cytometric analysis (reference value: 4.75 %); format: functional
SU-DHL-6 [23] = assay: Induction of apoptosis in human SU-DHL-6 cells assessed as necrotic cells at 0.1 uM incubated for 24 hrs by Annexin V-FITC/PI staining based flow cytometric analysis (reference value: 0.39 %); format: functional
SU-DHL-6 [24] = assay: Antitumor activity against human SU-DHL-6 cells xenografted in male nude mouse model assessed as tumor growth inhibition at 2 mg/kg, ip administered for 21 days relative to control; format: functional; settings: SU-DHL-6, 504 h, time 21 day, read-out: TGI
SU-DHL-6 [25] = assay: Antitumor activity against human SU-DHL-6 cells xenografted in male nude mouse model assessed as tumor growth inhibition at 10 mg/kg, ip administered for 21 days relative to control; format: functional; settings: SU-DHL-6, 504 h, time 21 day, read-out: TGI
[26] = Toxicity in male nude mouse xenografted with human SU-DHL-6 cells assessed as animal death at 2 to 10 mg/kg, ip administered for 21 days; format: organism-based; settings: in vivo, 504 h, dose 2-10 mg/kg, time 21 day
[27] = Toxicity in male nude mouse xenografted with human SU-DHL-6 cells assessed as effect on body weight at 2 to 10 mg/kg, ip administered for 21 days; format: organism-based; settings: in vivo, 504 h, dose 2-10 mg/kg, time 21 day
Mus musculus = assay: In vivo inhibition of AKT phosphorylation in male nude mouse xenografted with human SU-DHL-6 cells assessed as reduction in p-AKT expression level in tumor administered intraperitoneally for 21 days by Western blot analysis; format: functional, organism-based; settings: dose 2-10 mg/kg, route ip, time 21.0 day
SU-DHL-6 [28] = assay: Antitumor activity against human SU-DHL-6 cells xenografted in male nude mouse model assessed as reduction in Ki67 expression in tumor at 2 to 10 mg/kg, ip administered for 21 days by immunohistochemical analysis; format: functional, organism-based; settings: dose 2-10 mg/kg, time 21.0 day
[29] = Toxicity in male nude mouse xenografted with human SU-DHL-6 cells assessed as effect on heart morphology at 2 to 10 mg/kg, ip administered for 21 days by H and E staining based analysis; format: organism-based; settings: in vivo, 504 h, dose 2-10 mg/kg, time 21 day
[30] = Toxicity in male nude mouse xenografted with human SU-DHL-6 cells assessed as effect on liver morphology at 2 to 10 mg/kg, ip administered for 21 days by H and E staining based analysis; format: organism-based; settings: in vivo, 504 h, dose 2-10 mg/kg, time 21 day
[31] = Toxicity in male nude mouse xenografted with human SU-DHL-6 cells assessed as effect on spleen morphology at 2 to 10 mg/kg, ip administered for 21 days by H and E staining based analysis; format: organism-based; settings: in vivo, 504 h, dose 2-10 mg/kg, time 21 day
[32] = Toxicity in male nude mouse xenografted with human SU-DHL-6 cells assessed as effect on kidney morphology at 2 to 10 mg/kg, ip administered for 21 days by H and E staining based analysis; format: organism-based; settings: in vivo, 504 h, dose 2-10 mg/kg, time 21 day

Phosphatidylinositol 4,5-bisphosphate 3-kinase catalytic subunit beta isoform, sequence (P42338 whole entry, canonical isoform): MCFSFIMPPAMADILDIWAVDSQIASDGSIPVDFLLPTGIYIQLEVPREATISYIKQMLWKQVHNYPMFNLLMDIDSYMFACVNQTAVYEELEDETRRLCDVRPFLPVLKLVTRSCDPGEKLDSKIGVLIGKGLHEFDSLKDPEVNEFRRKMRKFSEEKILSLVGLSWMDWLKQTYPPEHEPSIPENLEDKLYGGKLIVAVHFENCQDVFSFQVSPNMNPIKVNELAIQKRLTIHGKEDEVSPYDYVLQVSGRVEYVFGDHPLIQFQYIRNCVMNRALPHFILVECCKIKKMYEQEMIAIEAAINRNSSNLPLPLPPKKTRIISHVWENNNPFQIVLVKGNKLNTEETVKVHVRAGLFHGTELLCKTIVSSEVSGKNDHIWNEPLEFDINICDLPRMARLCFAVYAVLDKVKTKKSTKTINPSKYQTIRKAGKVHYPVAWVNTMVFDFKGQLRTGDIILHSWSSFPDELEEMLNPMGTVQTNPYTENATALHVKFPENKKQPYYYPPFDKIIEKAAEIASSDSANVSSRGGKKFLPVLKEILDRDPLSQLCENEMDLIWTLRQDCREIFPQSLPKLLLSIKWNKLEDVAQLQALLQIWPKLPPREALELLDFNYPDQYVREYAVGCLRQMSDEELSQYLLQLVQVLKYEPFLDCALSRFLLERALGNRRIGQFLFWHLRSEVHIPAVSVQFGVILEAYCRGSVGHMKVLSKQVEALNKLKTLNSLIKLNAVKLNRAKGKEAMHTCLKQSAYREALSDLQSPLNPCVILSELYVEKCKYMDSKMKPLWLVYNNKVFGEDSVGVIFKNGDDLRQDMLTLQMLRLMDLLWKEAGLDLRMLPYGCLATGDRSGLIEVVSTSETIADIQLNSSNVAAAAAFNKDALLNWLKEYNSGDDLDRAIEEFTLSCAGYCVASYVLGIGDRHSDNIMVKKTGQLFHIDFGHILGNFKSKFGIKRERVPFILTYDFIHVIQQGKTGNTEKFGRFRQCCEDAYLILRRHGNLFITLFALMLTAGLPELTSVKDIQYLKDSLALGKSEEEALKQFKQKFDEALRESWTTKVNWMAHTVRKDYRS
von Hippel-Lindau disease tumor suppressor/Phosphatidylinositol 4,5-bisphosphate 3-kinase catalytic subunit beta isoform, sequence (P42338 whole entry, canonical isoform): as above
von Hippel-Lindau disease tumor suppressor/Phosphatidylinositol 4,5-bisphosphate 3-kinase catalytic subunit beta isoform, sequence (P40337 whole entry, canonical isoform): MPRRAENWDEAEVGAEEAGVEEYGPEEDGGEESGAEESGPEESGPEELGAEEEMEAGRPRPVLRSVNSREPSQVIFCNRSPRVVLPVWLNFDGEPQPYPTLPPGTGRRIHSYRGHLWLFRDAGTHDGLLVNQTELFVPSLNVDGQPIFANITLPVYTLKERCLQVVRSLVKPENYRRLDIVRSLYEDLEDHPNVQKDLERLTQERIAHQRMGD
von Hippel-Lindau disease tumor suppressor/Phosphatidylinositol 4,5-bisphosphate 3-kinase catalytic subunit alpha isoform, sequence (P42336 whole entry, canonical isoform): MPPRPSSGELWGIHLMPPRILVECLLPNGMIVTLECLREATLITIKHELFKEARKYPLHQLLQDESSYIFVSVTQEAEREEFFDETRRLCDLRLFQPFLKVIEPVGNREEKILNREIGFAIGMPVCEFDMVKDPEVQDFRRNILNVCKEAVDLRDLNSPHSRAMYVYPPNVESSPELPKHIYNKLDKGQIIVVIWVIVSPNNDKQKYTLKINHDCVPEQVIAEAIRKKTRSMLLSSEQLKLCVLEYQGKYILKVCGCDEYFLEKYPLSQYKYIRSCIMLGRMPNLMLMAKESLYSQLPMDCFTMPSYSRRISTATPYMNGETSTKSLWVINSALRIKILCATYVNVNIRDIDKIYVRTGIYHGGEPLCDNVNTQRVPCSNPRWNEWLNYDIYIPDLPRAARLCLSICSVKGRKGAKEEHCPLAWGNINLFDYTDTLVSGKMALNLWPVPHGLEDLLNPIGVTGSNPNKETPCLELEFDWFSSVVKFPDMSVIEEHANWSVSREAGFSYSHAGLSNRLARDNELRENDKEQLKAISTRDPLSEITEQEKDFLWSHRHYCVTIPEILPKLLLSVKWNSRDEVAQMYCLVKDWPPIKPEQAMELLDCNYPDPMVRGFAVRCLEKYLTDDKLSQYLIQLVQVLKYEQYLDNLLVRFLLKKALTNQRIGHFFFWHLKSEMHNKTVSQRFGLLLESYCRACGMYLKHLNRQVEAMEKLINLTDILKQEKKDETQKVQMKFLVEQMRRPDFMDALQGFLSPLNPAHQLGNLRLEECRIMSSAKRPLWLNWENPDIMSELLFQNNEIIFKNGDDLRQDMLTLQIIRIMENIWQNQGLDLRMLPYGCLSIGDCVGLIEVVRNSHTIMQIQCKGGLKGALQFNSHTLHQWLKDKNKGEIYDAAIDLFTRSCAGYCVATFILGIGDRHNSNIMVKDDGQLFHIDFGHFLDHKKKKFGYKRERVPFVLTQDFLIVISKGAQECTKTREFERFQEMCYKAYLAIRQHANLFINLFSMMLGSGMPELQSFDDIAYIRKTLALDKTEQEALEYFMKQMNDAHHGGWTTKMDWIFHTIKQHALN
von Hippel-Lindau disease tumor suppressor/Phosphatidylinositol 4,5-bisphosphate 3-kinase catalytic subunit alpha isoform, sequence (P40337 whole entry, canonical isoform): as the sequence (P40337 whole entry, canonical isoform) above
Phosphatidylinositol 4,5-bisphosphate 3-kinase catalytic subunit alpha isoform, sequence (P42336 whole entry, canonical isoform): as the sequence (P42336 whole entry, canonical isoform) above

For `COc1ncc(-c2ccc3ncnc(N[C@H]4CCN(C(=O)C5CCN(CCCCCCCCCC(=O)N[C@H](C(=O)N6C[C@H](O)C[C@H]6C(=O)N[C@@H](C)c6ccc(-c7scnc7C)cc6)C(C)(C)C)CC5)C4)c3n2)cc1C(=O)Oc1ccccc1`, the GI50 (SU-DHL-6 [1]) was 0.17 µM, the inhibition (SU-DHL-6 [2]) was “Active” and the GI50 (Pfeiffer) was 0.35 µM. For the same compound, the remaining at 48 h [3] was > 80%, the inhibition (SU-DHL-6 [4]) was “Active” and the Activity (SU-DHL-6 [5]) was “Active”. The IC50 [6] was 0.589 µM, the IC50 [7] was > 10 µM and the DC50 [8] was > 1 µM. The DC50 [9] was > 1 µM, the Activity (SU-DHL-6 [10]) was “Dose-dependent-effect” and the Activity (SU-DHL-6 [11]) was “Active; More Potent Than 10 Um Idelalisib”. The viability at 1 µM (SU-DHL-6 [12]) was 33.9%, the Activity (SU-DHL-6 [13]) was 14.65% and the Activity (SU-DHL-6 [14]) was 50.74%. The Activity (SU-DHL-6 [15]) was 0.76%, the viability at 0.01 µM (SU-DHL-6 [16]) was 91.7% and the Activity (SU-DHL-6 [17]) was 0.61%. It also gave an Activity (SU-DHL-6 [18]) of 6.92%, an Activity (SU-DHL-6 [19]) of 0.51% and a viability at 0.1 µM (SU-DHL-6 [20]) of 91.5%. For the same compound, the Activity (SU-DHL-6 [21]) was 0.75%, the Activity (SU-DHL-6 [22]) was 7.11% and the Activity (SU-DHL-6 [23]) was 0.65%. The inhibition in vivo at 2 mg/kg (SU-DHL-6 [24]) was 59.1%, the inhibition in vivo at 10 mg/kg (SU-DHL-6 [25]) was 73.3% and the Activity [26] was “Non-toxic”. The Activity [27] was “Non-toxic”, the inhibition (Mus musculus) was “Dose-dependent-effect” and the Activity (SU-DHL-6 [28]) was “Active”. For the same compound, the Activity [29] was “Non-toxic”, the Activity [30] was “Non-toxic” and the Activity [31] was “Non-toxic”. For the same compound, the Activity [32] was “Non-toxic”.
